The record followed here is ChEMBL document CHEMBL1148381, “Application of CoMFA and CoMSIA 3D-QSAR and docking studies in optimization of mercaptobenzenesulfonamides as HIV-1 integrase inhibitors” (J Med Chem, 2004).

Assay [1] addresses T1, Human immunodeficiency virus type 1 integrase (Human immunodeficiency virus 1, UniProt Q7ZJM1). Put plainly: Inhibitory activity against DNA strand transfer by HIV integrase.
In assay [2] the target is T1, Human immunodeficiency virus type 1 integrase. The assay is described as follows: Inhibitory activity against 3' processing by HIV integrase.

T1 sequence (Q7ZJM1 whole entry): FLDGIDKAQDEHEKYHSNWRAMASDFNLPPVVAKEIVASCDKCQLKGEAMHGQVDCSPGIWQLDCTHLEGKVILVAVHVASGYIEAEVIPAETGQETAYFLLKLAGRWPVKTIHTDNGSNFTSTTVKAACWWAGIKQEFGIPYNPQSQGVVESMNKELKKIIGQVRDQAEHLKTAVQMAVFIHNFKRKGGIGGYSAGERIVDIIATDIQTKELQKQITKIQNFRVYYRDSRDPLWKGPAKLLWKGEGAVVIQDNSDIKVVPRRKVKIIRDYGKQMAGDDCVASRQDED

Take `O=C(Nc1ccccc1)c1cc(S(=O)(=O)Nc2nncn2-c2ccc(Cl)cc2)c(S)cc1Cl`: the figures for the concentration for half-maximal inhibition (IC50) in assay [1] and in assay [2] were 12 µM and 6.03 µM, respectively.
The matching figures for `Cc1cnc(NS(=O)(=O)c2ccc(/N=N/c3cc4ccccc4cc3O)cc2)s1`: 50.1 µM and 38.9 µM.
The matching figures for `Cc1ccc(Nc2n[nH]c(NS(=O)(=O)c3cc(C)c(Cl)cc3S)n2)cc1`: 24 µM and 22.4 µM.
The matching figures for `O=C(Nc1ccc(Cl)cc1)c1cc(S(=O)(=O)Nc2nncn2-c2ccc(F)cc2)c(S)cc1Cl`: 37.2 µM and 37.2 µM.
`Cc1cc(S(=O)(=O)Nc2nnc3c(C(F)(F)F)cc(Cl)cn23)c(S)cc1Cl`: the values for the 50% inhibitory concentration (IC50) in assay [1] and in assay [2] were 24 µM and 10.7 µM, respectively.
In the same order, the values of `Cc1ccc(-n2cnnc2NS(=O)(=O)c2cc(C(=O)Nc3ccccc3)c(Cl)cc2S)cc1` are 10 µM and 6.03 µM.
In the same order, the values of `CCCCn1cnnc1NS(=O)(=O)c1cc(C(=O)Nc2ccc(Cl)cc2)c(Cl)cc1S` are 43.7 µM and 36.3 µM.
With `CC(=O)Oc1cc(S(=O)(=O)Nc2nnc(Nc3ccc(C)cc3)[nH]2)c(S)cc1Cl`, the results for the IC50 in assay [1] and in assay [2] were 10 µM and 7.59 µM, respectively.
In the same order, the values of `Cc1cc2c(cc1Cl)SC(C(C#N)C#N)NS2(=O)=O` (configuration not stated) are 603 µM and 708 µM.
The matching figures for `O=C(CC(Sc1[nH]cnc2ncnc1-2)Sc1[nH]cnc2ncnc1-2)Nc1ccc(S(=O)(=O)Nc2ccc(/N=N/c3ccccc3)cc2)cc1`: 112 µM and 141 µM.
The matching figures for `Cc1cc(C(F)(F)F)cc(-n2nc(NS(=O)(=O)c3cc(C)c(Cl)cc3S)nc2N)n1`: 6.31 µM and 9.33 µM.
With `CC1=NNC(=O)C1/N=N/c1ccc(S(=O)(=O)Nc2nccs2)cc1` (configuration not stated), the values for the IC50 in assay [1] and in assay [2] were 61.7 µM and 70.8 µM, respectively.
The matching figures for `Cc1cc(S(=O)(=O)Nc2nc3ccccc3[nH]2)c(S)cc1Cl`: 43.7 µM and 38.9 µM.
In the same order, the values of `Cc1cc(S(=O)(=O)Nc2nc3ccccc3nc2-c2cccc([N+](=O)[O-])c2)c(S)cc1Cl` are 7.94 µM and 15.1 µM.
In the same order, the values of `Cc1cc(S(=O)(=O)Nc2nc(Nc3ccccc3)nn2C)c(S)cc1Cl` are 15.8 µM and 27.5 µM.
Consider `O=S(=O)(Nc1nnc2c3ccccc3cnn12)c1ccc(Cl)cc1S`, for which the IC50 in assay [1] was 38.9 µM; in assay [2] it was 28.8 µM.
In the same order, the values of `Cc1cc(S(=O)(=O)Nc2nnc(Nc3ccccc3)[nH]2)c(S)cc1Cl` are 12.6 µM and 16.2 µM.
In the same order, the values of `Cc1cc(S(=O)(=O)Nc2n[nH]c(-c3ccc(Cl)cn3)n2)c(S)cc1Cl` are 10.2 µM and 8.91 µM.
The matching figures for `Cc1cc2nc3nc(N)nc(NS(=O)(=O)c4cc(C)c(Cl)cc4S)n3c2cc1C`: 4.27 µM and 5.5 µM.
Consider `Cc1cc(S(=O)(=O)Nc2nnc3cc(C(F)(F)F)cc(C)n23)c(S)cc1Cl`, for which the IC50 is 11 µM in assay [1] and 18.6 µM in assay [2].
In the same order, the values of `Cc1cc2c(cc1Cl)SC(C1C(=O)NC(=S)NC1=O)NS2(=O)=O` (configuration not stated) are 50.1 µM and 60.3 µM.
The matching figures for `CCOC(=O)C(C#N)C1NS(=O)(=O)c2cc(C)c(Cl)cc2S1` (configuration not stated): 112 µM and 331 µM.
The matching figures for `Cc1cc(S(=O)(=O)Nc2nnc3ccccn23)c(S)cc1Cl`: 110 µM and 123 µM.
In the case of `Cc1cc(S(=O)(=O)Nc2nnc3cnc4ccccc4n23)c(S)cc1Cl`, the IC50 is 8.32 µM in assay [1] and 31.6 µM in assay [2].
The matching figures for `CCCn1cnnc1NS(=O)(=O)c1cc(C(=O)Nc2ccc(C)cc2)c(Cl)cc1SCC(=O)O`: 43.7 µM and 43.7 µM.
The matching figures for `Cc1cc2c(cc1Cl)SC(C1C(=O)NC(=O)NC1=O)NS2(=O)=O` (configuration not stated): 60.3 µM and 60.3 µM.
Consider `Cc1cc(S(=O)(=O)NC(=NN)Nc2ccc(Cl)cc2)c(S)cc1Cl`, for which the IC50 in assay [1] and in assay [2] was 3.55 µM in each case.
On to `Cc1ccc(NC(=O)c2cc(S(=O)(=O)Nc3nncn3Cc3ccccc3)c(S)cc2Cl)cc1`, for which the IC50 was 7.94 µM in assay [1] and 8.91 µM in assay [2].
In the same order, the values of `CCCCn1cnnc1NS(=O)(=O)c1cc(C(=O)NCc2ccccc2)c(Cl)cc1S` are 70.8 µM and 89.1 µM.
Consider `Cc1cc(S(=O)(=O)Nc2nc(N)nc(N(C)C)n2)c(S)cc1Cl`, for which the values for the IC50 in assay [1] and in assay [2] were 41.7 µM and 77.6 µM, respectively.
The matching figures for `CCCCn1cnnc1NS(=O)(=O)c1cc(C(=O)Nc2ccc(C)cc2)c(Cl)cc1S`: 33.9 µM and 60.3 µM.
The matching figures for `Cc1cc(S(=O)(=O)Nc2nc(N)n(-c3ccccn3)n2)c(S)cc1Cl`: 22.9 µM and 14.5 µM.
The matching figures for `Cc1cc(S(=O)(=O)Nc2nnc3ccc4ccccc4n23)c(S)cc1Cl`: 7.41 µM and 12.9 µM.
Regarding `O=C(Nc1ccccc1)c1cc(S(=O)(=O)Nc2nncn2-c2ccc(F)cc2)c(S)cc1Cl`, the IC50 was 50.1 µM in assay [1] and 45.7 µM in assay [2].
In the same order, the values of `Cc1ccc(Nc2nc(NS(=O)(=O)c3cc(C)c(Cl)cc3S)n(C)n2)cc1` are 19.1 µM and 23.4 µM.
In the same order, the values of `O=S(=O)(Nc1nnc2c3ccccc3ccn12)c1ccc(F)cc1S` are 47.9 µM and 51.3 µM.
The matching figures for `Cc1ccc(-n2cnnc2NS(=O)(=O)c2cc(C(=O)Nc3ccc(Cl)cc3)c(Cl)cc2S)cc1`: 3.98 µM and 3.98 µM.
As to `Cc1cc(S(=O)(=O)Nc2nnc3c(Cl)cc(C(F)(F)F)cn23)c(S)cc1Cl`, the half-maximal inhibitory concentration (IC50) in assay [1] was 20.9 µM; in assay [2], 17.8 µM.
`Cc1cc(S(=O)(=O)NC2=NCCCN2)c(S)cc1Cl`: the IC50 in assay [1] was 145 µM; in assay [2] it was 148 µM.
In the same order, the values of `Cc1ccnc(NS(=O)(=O)c2ccc(/N=N/c3cc4ccccc4c(C(=O)O)c3O)cc2)n1` are 32.4 µM and 19.5 µM.
As to `CC(=O)C(/N=N/c1ccc(S(=O)(=O)Nc2ccccn2)cc1)C(=O)Nc1ccccc1C` (configuration not stated), the IC50 in assay [1] is 72.4 µM; in assay [2], 66.1 µM.
In the same order, the values of `COc1ccc(Nc2n[nH]c(NS(=O)(=O)c3cc(C)c(Cl)cc3S)n2)cc1` are 14.1 µM and 15.5 µM.
Consider `O=S(=O)(Nc1ccccn1)c1ccc(/N=N/c2cnc(O)c(O)c2)cc1`, for which the IC50 in assay [1] is 58.9 µM; in assay [2], 60.3 µM.
In the same order, the values of `Cc1cc(S(=O)(=O)Nc2nnc3c4c(C)csc4ncn23)c(S)cc1Cl` are 3.47 µM and 3.63 µM.
The matching figures for `CCCCn1cnnc1NS(=O)(=O)c1cc(C(N)=O)c(Cl)cc1SCC(=O)O`: 417 µM and 417 µM.
The matching figures for `O=S(=O)(Nc1nccs1)c1ccc(/N=N/c2cnc(O)c(O)c2)cc1`: 20.9 µM and 22.9 µM.
In assay [2], `COC(=O)CSc1cc(Cl)c(C)cc1S(=O)(=O)Nc1nnc(N)[nH]1` had an IC50 of 200 µM.
`O=C(O)c1cc2ccccc2c(/N=N/c2ccc(S(=O)(=O)Nc3nccs3)cc2)c1O`: the IC50 in assay [1] was 42.7 µM; in assay [2], 21.4 µM.
In the same order, the values of `Cc1cc(S(=O)(=O)Nc2nc(N)nc3nc4ccccc4n23)c(S)cc1Cl` are 7.76 µM and 9.77 µM.
